# In patent US10398783B2, “Antiproliferative compounds and conjugates made therefrom” (BRISTOL-MYERS SQUIBB COMPANY, priority 2016, dated 2019):
# Legend:
# Assay type in all cases: cell-based, human
# [1] = tested on: mesothelioma (H226) cancer cell line; assay: 72 hr ATP luminescence cell proliferation inhibition assay, H226
# Method: (§1) Proliferation inhibition was measured using a 72 hr ATP luminescence assay (Cheng et al., U.S. Pat. No. 8,394,922 B2 (2013)). The antiproliferative effects are reported as IC50's, i.e., the concentration of compound that produces a 50% inhibitory effect on cell proliferation.
# [2] = tested on: gastric (stomach) cancer (N87) cell line; assay: 72 hr ATP luminescence cell proliferation inhibition assay, N87; conditions: N87 cells
# Method: as §1
# [3] = tested on: ovarian cancer (OVCAR3) cell line; assay: 72 hr ATP luminescence cell proliferation inhibition assay, OVCAR3
# Method: as §1
# [4] = tested on: colon cancer (HCT116) cell line; assay: 72 hr ATP luminescence cell proliferation inhibition assay, HCT116
# Method: as §1
Structure (SMILES),IC50 ([1]; H226 cells),IC50 [2],IC50 ([3]; OVCAR3 cells),IC50 ([4]; HCT116 cells),"IC50 ([1]; Homo sapiens, NCI-H226, H226 cells)",IC50 ([2]; Homo sapiens),"IC50 ([3]; Homo sapiens, OVCAR-3, OVCAR3 cells)","IC50 ([4]; Homo sapiens, HCT-116, HCT116 cells)"
COc1cc2c(cc1OCCCC(=O)Nc1cc(C(=O)Nc3ccc4c(c3)OCc3nncn3-4)n(C)c1)N=C[C@@H]1Cc3ccccc3CN1C2=O [(Ib-31)],0.28 nM,0.23 nM,0.94 nM,0.078 nM,–,–,–,–
COc1cc2c(cc1OCCCC(=O)Nc1cc(C(=O)Nc3ccc4c(c3)-n3cnnc3CO4)n(C)c1)N=C[C@@H]1Cc3ccccc3CN1C2=O [(Ib-32)],3.1 nM,0.41 nM,1.6 nM,0.3 nM,–,–,–,–
COc1cc2c(cc1OCCCC(=O)Nc1cc(C(=O)Nc3ccc4c(c3)oc3ccccc34)n(C)c1)N=C[C@@H]1Cc3ccccc3CN1C2=O [(Ib-33)],< 0.004 nM,< 0.004 nM,0.052 nM,< 0.004 nM,–,–,–,–
COc1cc2c(cc1OCCCC(=O)Nc1cc(C(=O)Nc3ccc4c(c3)Cc3cc(N)ccc3-4)n(C)c1)N=C[C@@H]1Cc3ccccc3CN1C2=O [(Ib-34)],< 0.004 nM,0.006 nM,0.025 nM,< 0.004 nM,–,–,–,–
COc1ccc(NC(=O)c2cc(NC(=O)CCCOc3cc4c(cc3OC)C(=O)N3Cc5ccccc5C[C@H]3C=N4)cn2C)nc1 [(Ib-35)],< 0.004 nM,< 0.004 nM,0.11 nM,0.047 nM,–,–,–,–
COc1cc2c(cc1OCCCC(=O)Nc1cc(C(=O)Nc3cccc(OCc4ccccc4)n3)n(C)c1)N=C[C@@H]1Cc3ccccc3CN1C2=O [(Ib-36)],22 nM,3.7 nM,2.2 nM,3.7 nM,–,–,–,–
COc1cc2c(cc1OCCCC(=O)Nc1cc(C(=O)Nc3cnc4c(c3)ncn4C)n(C)c1)N=C[C@@H]1Cc3ccccc3CN1C2=O [(Ib-37)],1.2 nM,1.6 nM,5.2 nM,1.7 nM,–,–,–,–
COC(=O)c1cc(NC(=O)CCCOc2cc3c(cc2OC)C(=O)N2Cc4ccccc4C[C@H]2C=N3)cn1C [(Ib-38)],1.1 nM,1.1 nM,0.66 nM,1.1 nM,–,–,–,–
COC(=O)c1cc(-c2ccc(NC(=O)c3cc(NC(=O)CCCOc4cc5c(cc4OC)C(=O)N4Cc6ccccc6C[C@H]4C=N5)cn3C)cc2)cn1C [(Ib-39)],0.006 nM,0.002 nM,0.011 nM,0.003 nM,–,–,–,–
COC(=O)c1cc(NC(=O)c2cc(NC(=O)CCCOc3cc4c(cc3OC)C(=O)N3Cc5ccccc5C[C@H]3C=N4)cn2C)cn1C [(Ib-40)],0.1 nM,0.09 nM,0.16 nM,0.028 nM,–,–,–,–
COc1cc2c(cc1OCCCC(=O)Nc1cc(C(=O)Nc3ccccc3)n(C)c1)N=C[C@@H]1Cc3ccccc3CN1C2=O [(Ib-41)],0.083 nM,0.038 nM,0.053 nM,0.022 nM,–,–,–,–
COc1cc2c(cc1OCCCC(=O)Nc1cc(C(=O)NC3CC3)n(C)c1)N=C[C@@H]1Cc3ccccc3CN1C2=O [(Ib-42)],0.49 nM,0.39 nM,0.32 nM,0.38 nM,–,–,–,–
COc1cc2c(cc1OCCCC(=O)Nc1cc(C(=O)Nc3ccc(-c4ccccc4)cc3)n(C)c1)N=C[C@@H]1Cc3ccccc3CN1C2=O [(Ib-43)],0.013 nM,0.026 nM,0.025 nM,0.008 nM,–,–,–,–
COc1cc2c(cc1OCCCC(=O)Nc1cc(C(=O)Nc3ccccn3)n(C)c1)N=C[C@@H]1Cc3ccccc3CN1C2=O [(Ib-44)],0.085 nM,0.055 nM,0.053 nM,0.045 nM,–,–,–,–
COc1cc2c(cc1OCCCC(=O)Nc1cc(C(=O)Nc3ccc(Cl)cn3)n(C)c1)N=C[C@@H]1Cc3ccccc3CN1C2=O [(Ib-45)],0.085 nM,0.025 nM,0.01 nM,0.032 nM,–,–,–,–
COc1cc2c(cc1OCCCC(=O)Nc1cc(C(=O)Nc3cccnc3)n(C)c1)N=C[C@@H]1Cc3ccccc3CN1C2=O [(Ib-46)],0.27 nM,0.12 nM,0.55 nM,0.13 nM,–,–,–,–
COc1cc2c(cc1OCCCC(=O)Nc1cc(C(=O)Nc3ccc(Cl)nc3)n(C)c1)N=C[C@@H]1Cc3ccccc3CN1C2=O [(Ib-47)],0.13 nM,0.022 nM,0.13 nM,0.019 nM,–,–,–,–
COc1cc2c(cc1OCCCC(=O)Nc1cn(C)c(C(=O)Nc3ccccc3)n1)N=C[C@@H]1Cc3ccccc3CN1C2=O [(Ib-48)],0.18 nM,0.075 nM,0.094 nM,0.039 nM,–,–,–,–
COc1cc2c(cc1OCCCC(=O)Nc1cc(C(=O)Nc3ccc(-c4cc(-c5ncco5)n(C)c4)cc3)n(C)c1)N=C[C@@H]1Cc3ccccc3CN1C2=O [(Ib-49)],0.062 nM,0.16 nM,0.32 nM,0.051 nM,–,–,–,–
COc1cc2c(cc1OCCCC(=O)Nc1cc(C(=O)Nc3ccc(OCc4ccccc4)cc3)n(C)c1)N=C[C@@H]1Cc3ccccc3CN1C2=O [(Ib-51)],0.11 nM,0.037 nM,0.7 nM,0.022 nM,–,–,–,–
COc1cc2c(cc1OCCCC(=O)Nc1cc(C(=O)Nc3ccc(N)cc3)n(C)c1)N=C[C@@H]1Cc3ccccc3CN1C2=O [(Ib-52)],0.3 nM,0.45 nM,0.63 nM,0.28 nM,–,–,–,–
COc1cc(-c2ccc(NC(=O)c3cc(NC(=O)CCCOc4cc5c(cc4OC)C(=O)N4Cc6ccccc6C[C@H]4C=N5)cn3C)c(OC)c2)ccc1N [(Ib-53)],0.13 nM,0.092 nM,0.22 nM,0.098 nM,–,–,–,–
COc1cc2c(cc1OCCCC(=O)Nc1cc(C(=O)Nc3ccc(-c4ccc(N)cc4)cc3)n(C)c1)N=C[C@@H]1Cc3ccccc3CN1C2=O [(Ib-54)],–,–,–,–,0.05 nM,0.027 nM,0.071 nM,0.007 nM
COC(=O)c1cc(-c2ccc(NC(=O)c3nc(NC(=O)CCCOc4cc5c(cc4OC)C(=O)N4Cc6ccccc6C[C@H]4C=N5)cn3C)cc2)cn1C [(Ib-55)],0.018 nM,< 0.004 nM,0.045 nM,0.004 nM,–,–,–,–
